Data reported in patent US20250170104A1, “INHIBITORS OF PSEUDOMONAS AERUGINOSA VIRULENCE FACTOR Lasß” (priority 2022, published 2025).

Tested on: A549 cells challenged with P. aeruginosa PAO1 culture supernatant
Test: A549 cell-based assay, LasB-related cytotoxicity (MTT)
Parameters: species or system human
Settings: 10% (v/v) PAO1 csn
Protocol: The human lung adenocarcinoma cell line (A549) was cultured in Dulbecco's Modified Eagle Medium (DMEM), containing 10% Fetal Bovine Serum (FBS) and 1% penicillin-streptomycin mixture. Cells were maintained according to standard cell culture procedures.
To conduct the assay, 2.5-3.5*10^3 cells/well were seeded into a flat bottom 96-well plate (Corning™ Costar™) and incubated at 37° C.+5% CO2 for 24 hours. On the following day, several concentrations of the compound 169 were tested against 10% (v/v) Pseudomonas aeruginosa PAO1 (DSM 22644, ATCC 15692) culture supernatant diluted in DMEM starting from 1.25 μM. The compound was initially dissolved in 99.9% Dimethyl sulfoxide (DMSO) and a final assay concentration of 0.5% (v/v) was applied to minimize the proteolytic effect of DMSO on the bacterial culture supernatant. In addition, cells were challenged with 10% (v/v) of AlasB PAO1 to confirm the toxic effect derived from LasB, and DMEM was included as a control without any treatment. Plates were incubated at 37° C.+5% CO2 for 24 hours prior to the MTT assay.
The graph represents three independent experiments ±SD. One-way ANOVA statistical analysis was performed following Dunnett's multiple comparisons test, comparing the mean value of each concentration to the mean value of PAO1 without any treatment with compounds (**** p≤0.0001, ** p≤0.01, * p≤0.05).

Structure (SMILES): CC(C)CC(C(=O)NO)C(=O)Nc1ccc(Cn2cc(CNS(=O)(=O)CC(C)C)nn2)cc1 (centres unmarked) [Compound 169, 2-(Hydroxycarbamoyl)-N-[4-[[4-[(isobutylsulfonylamino)methyl]triazol-1-yl]methyl]phenyl]-4-methyl-pentanamide]
- Reduction of LasB-related cytotoxicity in A549 cells (24 h, MTT): excellent potency
- Dose-response of LasB inhibition in A549 cells (from 1.25 μM): Dose-dependent inhibition of LasB in a low micromolar to nanomolar range
